Where only a bound is given, the exact number is not on record here.

The values that follow come from ChEMBL document CHEMBL1136214, “Indole-based heterocyclic inhibitors of p38alpha MAP kinase: designing a conformationally restricted analogue” (Bioorg Med Chem Lett, 2003).

The target of this test is Mitogen-activated protein kinase 14 (Homo sapiens, UniProt Q16539). Put plainly: Inhibition of Mitogen-activated protein kinase p38 alpha.
Mitogen-activated protein kinase 14, sequence (Q16539 whole entry): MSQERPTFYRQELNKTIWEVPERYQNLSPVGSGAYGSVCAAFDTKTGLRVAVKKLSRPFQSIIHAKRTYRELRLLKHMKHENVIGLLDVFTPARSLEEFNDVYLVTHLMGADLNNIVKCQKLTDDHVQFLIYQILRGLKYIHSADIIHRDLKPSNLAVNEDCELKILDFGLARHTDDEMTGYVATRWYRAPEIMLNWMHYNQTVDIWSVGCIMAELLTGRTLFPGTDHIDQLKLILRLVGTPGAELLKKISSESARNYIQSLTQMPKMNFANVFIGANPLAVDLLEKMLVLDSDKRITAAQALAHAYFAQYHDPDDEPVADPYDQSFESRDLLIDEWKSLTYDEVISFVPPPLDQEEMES

For `O=C(c1cccc2cc[nH]c12)N1CCN(Cc2ccccc2)CC1`, the IC50 was greater than 30000 nM.

Take `COc1cc2[nH]ccc2cc1C(=O)N1C[C@H](C)N(Cc2ccccc2)C[C@H]1C`: the 50% inhibitory concentration (IC50) was 20 nM.

Take `C[C@@H]1CN(Cc2ccccc2)[C@@H](C)CN1C(=O)c1ccc2[nH]ccc2c1`: the IC50 was 1300 nM.

For `COc1cc2[nH]ccc2cc1C(=O)N1C[C@@H](C)N(Cc2ccccc2)C[C@@H]1C`, half-maximal inhibition (IC50) required 1650 nM.

With `COc1cc2[nH]ccc2cc1C(=O)N1CCN(Cc2ccccc2)CC1`, the IC50 is 950 nM.

On to `COc1cc2[nH]ccc2cc1C(=O)N1C[C@H](C)N(Cc2ccccc2)C[C@H]1C` (racemic), for which the IC50 came out at 70 nM.

What is called IC50 is the concentration that gives 50% inhibition. High values mean lower potency, low ones higher potency.
